Results: patent US7767658B2 (priority 2003, dated 2010)

Tests used:
[1] = test system: spleen cells stimulated with the whole inactivated virus; assay type: in vivo, BALB/c mice; details: after stimulation with inactivated virus; mice given ethyl DOPC in addition to the antigen
[2] = test system: spleen cells secreting γ-interferon; assay type: in vivo, BALB/c mice; details: after restimulation with inactivated SARS virus; in response to some of the peptides used

Structure (SMILES): CCCCCCCC/C=C\CCCCCCCC(=O)OC[C@@H](COP(=O)(OCC)OCC[N+](C)(C)C)OC(=O)CCCCCCC/C=C\CCCCCCCC (stereo partly drawn) [ethyl DOPC, 1,2-dioleoyl-sn-glycero-3-ethylphosphocholine]
- production of IL-5 (in words) [1]: not clearly modified
- production of γ-IFN (in words) [1]: considerably increased
- production of γ-interferon (ELISPOT after restimulation) [2]: increased
